Results reported in article PMC8981170 (RSC Advances, 2022).
Values joined by “and” are separate entries in the source; they are usually repeats but may differ in a detail not shown here. Identical values can stand only once.

Assays:
Sirt1 [1] = target: T1, Sirt1 (Homo sapiens, UniProt Q96EB6); assay: Enzyme-based Sirt1 inhibition assay at 10 μM; assay type: biochemical; details: for % inhibition at 10 μM Sirt1: mean of three independent experiments; for inhibition at 10 µM: read-out: % inhibition at 10 μM Sirt1, 10 μM, mean of three independent experiments
T1 sequence (Q96EB6 1-747): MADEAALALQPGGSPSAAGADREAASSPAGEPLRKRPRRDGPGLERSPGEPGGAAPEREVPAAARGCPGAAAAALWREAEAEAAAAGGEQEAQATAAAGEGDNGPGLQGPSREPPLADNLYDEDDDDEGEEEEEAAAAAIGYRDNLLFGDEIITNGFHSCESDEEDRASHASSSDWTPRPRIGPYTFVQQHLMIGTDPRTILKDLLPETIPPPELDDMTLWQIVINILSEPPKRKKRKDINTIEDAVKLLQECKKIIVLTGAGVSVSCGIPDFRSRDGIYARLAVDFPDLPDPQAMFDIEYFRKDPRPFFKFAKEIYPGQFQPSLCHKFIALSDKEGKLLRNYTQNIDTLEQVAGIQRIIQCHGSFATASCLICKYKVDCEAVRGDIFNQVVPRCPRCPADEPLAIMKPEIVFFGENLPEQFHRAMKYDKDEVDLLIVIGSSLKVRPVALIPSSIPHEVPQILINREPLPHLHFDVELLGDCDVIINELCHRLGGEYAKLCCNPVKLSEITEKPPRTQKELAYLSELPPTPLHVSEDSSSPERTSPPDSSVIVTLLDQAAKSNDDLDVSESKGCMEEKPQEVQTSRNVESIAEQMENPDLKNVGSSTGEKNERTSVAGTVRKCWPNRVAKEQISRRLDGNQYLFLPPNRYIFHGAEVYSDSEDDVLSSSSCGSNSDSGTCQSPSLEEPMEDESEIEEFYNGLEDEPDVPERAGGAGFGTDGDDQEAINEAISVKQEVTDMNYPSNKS

Sirt1 [2] = target: T1, Sirt1; assay: Cell-based Sirt1 inhibition in HepG2 cells; details: HepG2, read-out: % Inhibition Sirt1, HepG2 cells, 10 μM, 6 h; n = 3
Sirt2 + Sirt3 = assay: Cell-based Sirt2/Sirt3 joint inhibition in HepG2 cells; set-up: species or system human; details: 10 μM, 6 h
HepG2 cells = assay: MTT cell viability assay, HepG2; assay type: cell-based, human; details: 1-400 μM, 24 h
MCF7 cells = assay: MTT cell viability assay, MCF7; assay type: cell-based, human; details: 1-400 μM, 24 h
Ac-p53 in HepG2 cells = assay: Western blotting for acetylated p53; assay type: cell-based, human; details: 25 μM, 48 h, western blot
Sirt1 [3] = target: T1, Sirt1; assay: Concentration-dependent Sirt1 inhibition
[4] = joint inhibition of Sirt2 and Sirt3, n = 3, 10 µM

% inhibition at 10 μM Sirt1 (Sirt1 [1])	inhibition at 10 µM (Sirt1 [1])	inhibition at 10 µM (Sirt1 [2])	Compound	further results
88.03%	> 80%	< 1%	COc1ccc(-c2nc3cc(C(=O)N[C@@H](C)C(=O)O)ccc3n2C2CCCCC2)cc1 [Compound 7a]	
88.18%	> 80%	< 1%	COc1ccc(-c2nc3cc(C(=O)N[C@H](C(=O)O)C(C)C)ccc3n2C2CCCCC2)cc1 [Compound 7b]	
86.34%	> 80%	3.24 ± 0.27%	COc1ccc(-c2nc3cc(C(=O)N[C@@H](CC(C)C)C(=O)O)ccc3n2C2CCCCC2)cc1 [Compound 7c]	% Inhibition Sirt2 + Sirt3 (Sirt2 + Sirt3; joint inhibition of Sirt2 and Sirt3, n = 3): 5.21 ± 0.78%
89.99%	> 80%	≥ 30%	COc1ccc(-c2nc3cc(C(=O)N[C@@H](Cc4c[nH]c5ccccc45)C(=O)O)ccc3n2C2CCCCC2)cc1 [Compound 7d]	% Inhibition Sirt2 + Sirt3 (Sirt2 + Sirt3; [4]): 19% and 20% and 19.89 ± 0.89%; Effect on HepG2 cell viability (HepG2 cells): continuous decrease in cell viability with increasing inhibitor concentration; Effect on MCF7 cell viability (MCF7 cells): continuous and comparatively higher decrease in cell viability with increasing inhibitor concentration; Ac-p53 levels in HepG2 cells (Ac-p53 in HepG2 cells): increased the Ac-p53 levels in HepG2 cells comparable to the positive control; IC50 (Sirt1 [3]): 770 ± 40 nM
	< 30%		C[C@H](NC(=O)c1ccc2c(c1)nc(-c1ccc(F)cc1)n2C1CCCCC1)C(=O)O [Compound 7e]	
	< 30%		CC(C)[C@H](NC(=O)c1ccc2c(c1)nc(-c1ccc(F)cc1)n2C1CCCCC1)C(=O)O [Compound 7f]	
	80.8%	< 1%	CC(C)C[C@H](NC(=O)c1ccc2c(c1)nc(-c1ccc(F)cc1)n2C1CCCCC1)C(=O)O [Compound 7g]	
	86.8%	< 1%	O=C(N[C@@H](Cc1c[nH]c2ccccc12)C(=O)O)c1ccc2c(c1)nc(-c1ccc(F)cc1)n2C1CCCCC1 [Compound 7h]	
	< 30%		O=C(N[C@@H](Cc1c[nH]c2ccccc12)C(=O)O)c1ccc2c(c1)nc(-c1c(F)cccc1Cl)n2C1CCCCC1 [Compound 7l]	
	< 30%		COc1ccc(-c2n[nH]cc2C=C2SC(=S)N([C@@H](C)C(=O)O)C2=O)cc1 [Compound 13b]	
	< 30%		COc1ccc(-c2n[nH]cc2C=C2SC(=S)N([C@@H](Cc3ccccc3)C(=O)O)C2=O)cc1 [Compound 13c]	
90.64%	> 80%	≥ 30%	COc1ccc(-c2n[nH]cc2C=C2SC(=S)N([C@@H](Cc3c[nH]c4ccccc34)C(=O)O)C2=O)cc1 [Compound 13d]	% Inhibition Sirt2 + Sirt3 (Sirt2 + Sirt3; [4]): 6% and 6.04 ± 0.91%; Effect on MCF7 cell viability (MCF7 cells): no significant changes in cell viability; Ac-p53 levels in HepG2 cells (Ac-p53 in HepG2 cells): no major change; IC50 (Sirt1 [3]): 710 ± 30 nM
	< 30%		C[C@@H](C(=O)O)N1C(=O)C(=Cc2c[nH]nc2-c2cc(F)cc(F)c2)SC1=S [Compound 13f]	
	< 30%		O=C(O)[C@H](Cc1ccccc1)N1C(=O)C(=Cc2c[nH]nc2-c2cc(F)cc(F)c2)SC1=S [Compound 13g]	
89.15%	> 80%	≥ 30%	O=C(O)[C@H](Cc1c[nH]c2ccccc12)N1C(=O)C(=Cc2c[nH]nc2-c2cc(F)cc(F)c2)SC1=S [Compound 13h]	% Inhibition Sirt2 + Sirt3 (Sirt2 + Sirt3; [4]): 10% and 9.53 ± 0.65%; Effect on HepG2 cell viability (HepG2 cells): very less decrease in cell viability; Effect on MCF7 cell viability (MCF7 cells): no significant changes in cell viability; Ac-p53 levels in HepG2 cells (Ac-p53 in HepG2 cells): no major change; IC50 (Sirt1 [3]): 660 ± 20 nM
	< 30%		C[C@@H](C(=O)O)N1C(=O)C(=Cc2c[nH]nc2-c2ccc([N+](=O)[O-])cc2)SC1=S [Compound 13j]	
	< 30%		O=C(O)[C@H](Cc1ccccc1)N1C(=O)C(=Cc2c[nH]nc2-c2ccc([N+](=O)[O-])cc2)SC1=S [Compound 13k]	
89.64%	> 80%	≥ 30%	O=C(O)[C@H](Cc1c[nH]c2ccccc12)N1C(=O)C(=Cc2c[nH]nc2-c2ccc([N+](=O)[O-])cc2)SC1=S [Compound 13l]	% Inhibition Sirt2 + Sirt3 (Sirt2 + Sirt3; [4]): 9% and 9.47 ± 0.92%; Effect on HepG2 cell viability (HepG2 cells): very less decrease in cell viability; Effect on MCF7 cell viability (MCF7 cells): no significant changes in cell viability; Ac-p53 levels in HepG2 cells (Ac-p53 in HepG2 cells): no major change; IC50 (Sirt1 [3]): 730 ± 60 nM
